{
  "source": "ChEMBL document CHEMBL6109050",
  "about": "“Synthesis of novel pyrrolobenzodiazepine (PBD) C1-substituted monomers and dimers with DNA-binding activity and cytotoxicity” (Bioorg Med Chem Lett, 2025)",
  "test_system": "MDA-MB-231",
  "experiment": "Cytotoxicity against human MDA-MB-231 cells incubated for 72 hrs by MTT assay",
  "format": "functional, cell-based",
  "conditions": "MDA-MB-231, 72 h",
  "data": [
    {"molecule": "COc1cc2c(cc1OC)C(=O)N1CC[C@H](OCCCO[C@H]3CCN4C(=O)c5cc(OC)c(OC)cc5N=C[C@H]34)[C@H]1C=N2", "values": [
      {"measurement": "IC50", "value": 0.236, "unit": "µM"}
    ]},
    {"molecule": "COC(=O)c1cc(-c2ccc(NC(=O)c3nc(NC(=O)CO[C@H]4CCN5C(=O)c6cc(OC)c(OC)cc6N=C[C@H]45)cn3C)cc2)cn1C", "values": [
      {"measurement": "IC50", "value": 0.036, "unit": "µM"}
    ]}
  ]
}
